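These data come from cells grown in 96-well plates and exposed to compound for 48 hours at five concentrations. Definition used: TGI = concentration required for complete inhibition of growth.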

The values that follow come from PubChem BioAssay (NCI).

Assay in all cases: NCI anticancer screen, dose series, 48 h
In experiment [1] the test system is COLO 205 colon.
The test system of experiment [2] is HCT-116 colon.
Experiment [3] deals with DU-145 prostate.
Experiment [4] concerns HCC-2998 colon.
In experiment [5] the test system is T-47D breast.
In experiment [6] the test system is SR leukemia.
Experiment [7] deals with NCI-H23 lung.
The test system of experiment [8] is CAKI-1 renal.
Experiment [9] concerns HOP-92 NSCLC.
The test system of experiment [10] is MALME-3M melanoma.
In experiment [11] the test system is HT29 colon.
Experiment [12] deals with MDA-MB-435.
Experiment [13] relates to SF-295 CNS.
Experiment [14] concerns SN12C renal.
Experiment [15] relates to OVCAR-8 ovarian.
For experiment [16], the system named is KM12 colon.
Experiment [17] has as its system OVCAR-4 ovarian.
Experiment [18] concerns OVCAR-5 ovarian.

`CC(=O)OCC1OC(N2C(C)=C(C(C)=O)C(c3ccco3)C(C#N)=C2S)C(OC(C)=O)C(OC(C)=O)C1OC(C)=O` (stereo unspecified): the TGI in experiment [1], in experiment [2], in experiment [3], in experiment [4], in experiment [5] and in experiment [6] was over 100 µM in each case. The TGI in experiment [7], in [8], in experiment [9], in experiment [10], in experiment [11] and in [12] was over 100 µM in each case. The TGI in experiment [13], in experiment [14], in [15], in [16], in experiment [17] and in [18] was over 100 µM in each case.

Turning to `O=C(CCc1ccc(O)cc1)NCCc1cccc(OCc2ccccc2)c1`, the TGI is over 100 µM in [1]; 50.6 µM in [2]; over 100 µM in [3]; 41.3 µM in experiment [4]; 67.7 µM in experiment [5]; 36.5 µM in [6]. For the same molecule, the TGI in experiment [7] is 71.6 µM; in experiment [8], over 100 µM; in experiment [9] it was 70.9 µM; in experiment [10], 79.6 µM; in [11], 38.4 µM; in experiment [12], 38.6 µM. Moreover, the TGI was over 100 µM in experiment [13]; over 100 µM in experiment [14]; over 100 µM in [15]; 83 µM in experiment [16]; over 100 µM in experiment [17]; over 100 µM in experiment [18].

On to `COc1cc(NCc2ccc3nc(OC)c(OC)nc3c2)cc(OC)c1OC`, for which the TGI in experiment [1], in [2], in experiment [3], in experiment [4], in [5] and in [6] was over 100 µM each time. The TGI in experiment [7], in [8], in experiment [9], in experiment [10], in experiment [11] and in experiment [12] was over 100 µM throughout. Besides, the TGI in experiment [13], in experiment [14], in [15], in [16], in experiment [17] and in [18] was over 100 µM each time.

For `CC1(C)CCCCCCC2OC2CCCCCC(C)(C)C1=O` (stereo unspecified), the TGI in experiment [1] was 29.5 µM; in experiment [2] it was over 100 µM; in [3], over 100 µM; in experiment [4], over 70.8 µM; in experiment [5], over 100 µM; in experiment [6], over 70 µM. Moreover, the TGI in experiment [7] is over 100 µM; in experiment [8] it was over 100 µM; in experiment [9] it was over 81 µM; in experiment [10], over 100 µM; in experiment [11] it was over 60.5 µM; in experiment [12], over 100 µM. Moreover, the TGI in experiment [13] was over 67.3 µM; in experiment [14] it was over 64 µM; in experiment [15], over 100 µM; in experiment [16] it was 97 µM; in [17] it was over 100 µM; in experiment [18], over 100 µM.

Turning to `CCOC(=O)C1C(c2ccc(OC)cc2)c2c([nH][nH]c2=O)CC1(O)OCC` (stereo unspecified), the TGI in [1], in experiment [2], in [3], in experiment [4], in experiment [5] and in experiment [6] was over 100 µM each time. For the same molecule, the TGI in experiment [7], in experiment [8], in experiment [9], in [10], in [11] and in experiment [12] was over 100 µM in each case. Further, the TGI in [13], in [14], in [15], in [16], in experiment [17] and in [18] was over 100 µM in each case.

With `CCCCCCCCC/C=C1\CC(CO)(COC(=O)C2CCCCC2)OC1=O` (stereo unspecified), the TGI in [1] was 30.9 µM; in experiment [2], 44.5 µM; in experiment [3], 21.5 µM; in experiment [4], 42.3 µM; in experiment [5], 51.7 µM; in experiment [6] it was over 100 µM. For the same molecule, the TGI in experiment [7] came to 47 µM; in [8], 49.3 µM; in [9], 22.2 µM; in experiment [10], 31.9 µM; in experiment [11], 42 µM; in experiment [12] it was 34.4 µM. For the same molecule, the TGI in experiment [13] was determined as 34.1 µM; in experiment [14], 35.2 µM; in [15], 29.2 µM; in experiment [16], 38.9 µM; in experiment [17], 49.3 µM; in [18], 38 µM.

Consider `COc1ccc(/C=C2\CCCCCC2=O)cc1`, for which the TGI in [1], in [2], in [3], in experiment [4], in experiment [5] and in experiment [6] was over 100 µM each time. In addition, the TGI in experiment [7], in experiment [8], in [9], in [10], in experiment [11] and in experiment [12] was over 100 µM each time. Moreover, the TGI in experiment [13], in experiment [14], in [15], in [16], in experiment [17] and in experiment [18] was over 100 µM each time.

As to `CN(C)CCCCN1c2ccccc2Sc2cc(N=[N+]=[N-])ccc21`, the TGI in [1] is 3.09 µM; in experiment [2], 3.32 µM; in experiment [3], 3.8 µM; in experiment [4] it was 3.37 µM; in [5], 4.86 µM; in experiment [6], over 100 µM. Moreover, the TGI in [7] worked out at 22.4 µM; in [8] it was 3.73 µM; in experiment [9], 10.5 µM; in [10] it was 3.34 µM; in [11], 2.9 µM; in [12], 3.09 µM. In addition, the TGI worked out at 4.05 µM in experiment [13]; 12.1 µM in experiment [14]; 3.38 µM in experiment [15]; 3.17 µM in experiment [16]; 6.35 µM in experiment [17]; 3.76 µM in experiment [18].

With `CCCCC(=O)NC1(c2cc3ccccc3s2)CCCCC1`, the TGI in experiment [1], in [2], in experiment [3], in experiment [4], in experiment [5] and in [6] was over 100 µM each time. Further, the TGI in [7], in [8], in experiment [9], in [10], in experiment [11] and in experiment [12] was over 100 µM throughout. Also, the TGI in experiment [13], in experiment [14], in [15], in experiment [16], in experiment [17] and in experiment [18] was over 100 µM in each case.

Consider `CC(=O)NC1C(O)C(O)C(CO)OC1n1ncc(=O)[nH]c1=O` (stereo unspecified), for which the TGI in experiment [1], in experiment [2], in experiment [3], in experiment [4], in experiment [5] and in experiment [6] was over 100 µM throughout. The TGI in experiment [7], in [8], in [9], in experiment [10], in experiment [11] and in experiment [12] was over 100 µM each time. For the same molecule, the TGI in [13], in [14], in [15], in [16], in experiment [17] and in [18] was over 100 µM throughout.

Consider `O=c1[nH]c(=S)[nH]n1C(=S)n1[nH]c(=S)[nH]c1=O`, for which the TGI in experiment [1], in experiment [2], in [3], in experiment [4], in experiment [5] and in [6] was over 100 µM in each case. The TGI in experiment [7], in experiment [8], in experiment [9], in [10], in [11] and in experiment [12] was over 100 µM throughout. Besides, the TGI in experiment [13], in experiment [14], in experiment [15], in experiment [16], in experiment [17] and in experiment [18] was over 100 µM in each case.

`Cn1c(NS(=O)(=O)c2ccccc2)nc2ccccc21`: the TGI in [1], in experiment [2], in [3], in experiment [4], in experiment [5] and in experiment [6] was over 100 µM throughout. The TGI in experiment [7], in experiment [8], in [9], in experiment [10], in [11] and in experiment [12] was over 100 µM each time. Further, the TGI in experiment [13], in experiment [14], in experiment [15], in [16], in experiment [17] and in experiment [18] was over 100 µM each time.
